Converted amounts (≈) assume the structure as drawn.
Legend:
A375 melanoma cells [1] = test: Cell viability by cell counting, trypan blue exclusion method; assay type: cell-based; conditions: Homo sapiens, A-375, 48 h, percentage of cells alive relative to negative control DMSO (100%)
Aqueous solubility = assay type: physicochemical; conditions: aqueous medium (not further specified), read-out: Solublity
CHOP in Kyse 70 cells = test: CHOP induction (ER stress marker), western blot, Kyse70; assay type: cell-based, human; set-up: key: −: No induction of CHOP; +: Induction of CHOP; ++: Significant induction of CHOP; +++: Strong induction of CHOP; conditions: Kyse70 (serum free), 24 h
CHOP in SH10TC cells = test: CHOP induction (ER stress marker), western blot, SH10TC; assay type: cell-based, human; set-up: key: −: No induction of CHOP; +: Induction of CHOP; ++: Significant induction of CHOP; +++: Strong induction of CHOP; conditions: SH10TC (serum free), 24 or 48 h
[2] = test system: CHOP in A375 melanoma cells; test: CHOP induction (ER stress marker), western blot, A375; assay type: cell-based, human; set-up: key: −: No induction of CHOP; +: Induction of CHOP; ++: Significant induction of CHOP; +++: Strong induction of CHOP; conditions: A375 (serum free), 24 h
CHOP in KATO III cells = test: CHOP induction (ER stress marker), western blot, Kato III; assay type: cell-based, human; set-up: key: −: No induction of CHOP; +: Induction of CHOP; ++: Significant induction of CHOP; +++: Strong induction of CHOP; conditions: Kato III (1% SVF), 24 or 48 h
A375 melanoma cells [3] = test: IC50 determination in A375 cells, blue trypan exclusion; assay type: cell-based, human; conditions: Homo sapiens, A-375; A375, serum free, 24 h

| SMILES | viability at 10 µM (A375 melanoma cells [1]) [%] | solubility (Aqueous solubility) [µM] | viability at 1 µM (A375 melanoma cells [1]) [%] | viability at 5 µM (A375 melanoma cells [1]) [%] | also measured |
| --- | --- | --- | --- | --- | --- |
| COc1ccc(-c2csc(NC(C)=O)n2)cc1NS(=O)(=O)c1cccc2c(N(C)C)cccc12 [PB600, N-(4-(3-((5-(dimethylamino)naphthalene)-1-sulfonamido)-4-methoxyphenyl)thiazol-2-yl)acetamide] | 48.8 ± 4.3 |  |  |  |  |
| CN(C)c1cccc2c(S(=O)(=O)Nc3cc(-c4csc(NC(=O)CN5CCN(CCO)CC5)n4)ccc3F)cccc12 [PB601, N-(4-(3-((5-(dimethylamino)naphthalene)-1-sulfonamido)-4-fluorophenyl)thiazol-2-yl)-2-(4-(2-hydroxyethyl)piperazin-1-yl)acetamide] | 10.2 ± 2.7 | 5.2 ± 1.9 (≈ 3.19 µg/mL) | 47.2 ± 6.7 | 22.5 ± 5.3 |  |
| COc1ccc(-c2csc(NC(=O)CN3CCN(CCO)CC3)n2)cc1NS(=O)(=O)c1cccc2c(N(C)C)cccc12 [PB602, N-(4-(3-((5-(dimethylamino)naphthalene)-1-sulfonamido)-4-methoxyphenyl)thiazol-2-yl)-2-(4-(2-hydroxyethyl)piperazin-1-yl)acetamide] | 1 ± 1 | 3.4 ± 0.7 (≈ 2.12 µg/mL) | 47.6 ± 2.4 | 1.7 ± 0.9 |  |
| COCCOc1ccc(-c2csc(NC(C)=O)n2)cc1NS(=O)(=O)c1cccc2c(N(C)C)cccc12 [PB603, N-(4-(3-((5-(dimethylamino)naphthalene)-1-sulfonamido)-4-(2-methoxyethoxy)phenyl)thiazol-2-yl)acetamide] | 43.1 ± 8.7 |  |  |  |  |
| COCCOc1ccc(-c2csc(NC(=O)CN3CCN(CCO)CC3)n2)cc1NS(=O)(=O)c1cccc2c(N(C)C)cccc12 [PB604, N-(4-(3-((5-(dimethylamino)naphthalene)-1-sulfonamido)-4-(2-methoxyethoxy)phenyl)thiazol-2-yl)-2-(4-(2-hydroxyethyl)piperazin-1-yl)acetamide] | 16.3 ± 9.8 | 4.1 ± 0.4 (≈ 2.74 µg/mL) | 57.7 ± 16.5 | 19 ± 8.6 |  |
| CN(C)c1cccc2c(S(=O)(=O)Nc3cccc(-c4csc(NC(=O)COCC(O)CO)n4)c3)cccc12 (centres unmarked) [PB605, 2-(2,3-dihydroxypropoxy)-N-(4-(3-((5-(dimethylamino)naphthalene)-1-sulfonamido)phenyl)thiazol-2-yl)acetamide] | 6.4 ± 0.6 | 2.8 ± 0.5 (≈ 1.56 µg/mL) | 64.5 ± 4.3 | 29.4 ± 9.8 |  |
| CN(C)c1cccc2c(S(=O)(=O)Nc3cccc(-c4csc(NC(=O)CCCCCNC(=O)OC(C)(C)C)n4)c3)cccc12 [PB624, Tert-butyl(6-((4-(3-((5-(dimethylamino)naphthalene)-1-sulfonamido)phenyl)thiazol-2-yl)amino)-6-oxohexyl)carbamate] | 33.3 ± 5.5 |  |  | 87.8 ± 16.2 |  |
| CCOC(=O)CCCC(=O)Nc1nc(-c2cccc(NS(=O)(=O)c3cccc4c(N(C)C)cccc34)c2)cs1 [PB625, Ethyl 5-((4-(3-((5-(dimethylamino)naphthalene)-1-sulfonamido)phenyl)thiazol-2-yl)amino)-5-oxopentanoate] | 36.5 ± 7.5 |  |  | 93 ± 3 |  |
| CN(C)c1cccc2c(S(=O)(=O)Nc3cccc(-c4csc(NC(=O)CCCNC(=O)OC(C)(C)C)n4)c3)cccc12 [PB631, Tert-butyl (4-((4-(3-((5-(dimethylamino)naphthalene)-1-sulfonamido)phenyl)thiazol-2-yl)amino)-4-oxobutyl)carbamate] | 35.4 ± 14.2 |  |  | 31.3 ± 4.9 |  |
| CC(=O)NCCCC(=O)Nc1nc(-c2cccc(NS(=O)(=O)c3cccc4c(N(C)C)cccc34)c2)cs1 [PB633] | 43.8 ± 12.7 |  |  | 65.2 ± 9.9 |  |
| Cc1nc(-c2cccc(NS(=O)(=O)c3cccc4c(N(C)C)cccc34)c2)cs1 [PB635, 5-(dimethylamino)-N-(3-(2-methylthiazol-4-yl)phenyl)naphthalene-1-sulfonamide] | 46.9 ± 4.4 |  |  | 47 ± 13.5 |  |
| CN1CCN(CC(=O)Nc2nc(-c3cccc(NS(=O)(=O)c4cccc5c(N(C)C)cccc45)c3)cs2)CC1 [PB638, N-(4-(3-((5-(dimethylamino)naphthalene)-1-sulfonamido)phenyl)thiazol-2-yl)-2-(4-methylpiperazin-1-yl)acetamide] | 0 | 4 ± 2 (≈ 2.26 µg/mL) | 37.5 ± 5.9 | 0.9 ± 1 |  |
| CN(C)c1cccc2c(S(=O)(=O)Nc3cccc(-c4csc(NC(=O)CN5CCOCC5)n4)c3)cccc12 [PB639, N-(4-(3-((5-(dimethylamino)naphthalene)-1-sulfonamido)phenyl)thiazol-2-yl)-2-morpholinoacetamide] | 24 |  | 100 ± 23.6 | 63.5 ± 16 |  |
| CN(C)c1cccc2c(S(=O)(=O)Nc3cccc(-c4csc(NC(=O)CN5CCN(CCO)CC5)n4)c3)cccc12 [PB640, N-(4-(3-((5-(dimethylamino)naphthalene)-1-sulfonamido)phenyl)thiazol-2-yl)-2-(4-(2-hydroxyethyl)piperazin-1-yl)acetamide] | 0 | 4.2 ± 0.4 (≈ 2.5 µg/mL) | 54.2 ± 5.9 | 67 ± 10.6 |  |
| CN(C)c1cccc2c(S(=O)(=O)Nc3cccc(-c4csc(NC(=O)CN5CCC(C(N)=O)CC5)n4)c3)cccc12 [PB641, 1-(2-((4-(3-((5-(dimethylamino)naphthalene)-1-sulfonamido)phenyl)thiazol-2-yl)amino)-2-oxoethyl)piperidine-4-carboxamide] | 40 |  | 104 ± 5.9 | 105 ± 18.9 |  |
| CN(C)c1cccc2c(S(=O)(=O)Nc3cccc(-c4csc(NC(=O)CNCCO)n4)c3)cccc12 [PB643, N-(4-(3-((5-(dimethylamino)naphthalene)-1-sulfonamido)phenyl)thiazol-2-yl)-2-((2-hydroxyethyl)amino)acetamide] | 0 | 3 ± 1 (≈ 1.58 µg/mL) | 108 ± 11.8 | 29.8 ± 6.5 |  |
| CN(C)c1cccc2c(S(=O)(=O)Nc3cccc(-c4csc(NC(=O)CNCCCN5CCOCC5)n4)c3)cccc12 [PB644, N-(4-(3-((5-(dimethylamino)naphthalene)-1-sulfonamido)phenyl)thiazol-2-yl)-2-((3-morpholinopropyl)amino)acetamide] | 8 |  | 83.3 ± 23.6 | 11.7 ± 1.2 |  |
| CCOP(=O)(NCC(=O)Nc1nc(-c2cccc(NS(=O)(=O)c3cccc4c(N(C)C)cccc34)c2)cs1)OCC [PB649, Diethyl-(2-((4-(3-((5-(dimethylamino)naphthalene)-1-sulfonamido)phenyl)thiazol-2-yl)amino)-2-oxoethyl)phosphoramidate] | 26.4 ± 4.5 |  |  | 77.7 ± 19.8 |  |
| CC(=O)Nc1nc(-c2ccc(F)c(NS(=O)(=O)c3cccc4c(N(C)C)cccc34)c2)cs1 [PB651, N-(4-(3-((5-(dimethylamino)naphthalene)-1-sulfonamido)-4-fluorophenyl)thiazol-2-yl)acetamide] | 25 ± 8.1 |  |  | 89.4 ± 5.6 |  |
| CN(C)c1cccc2c(S(=O)(=O)Nc3cccc(-c4csc(NC(=O)CNCCS(=O)(=O)O)n4)c3)cccc12 [PB654, 2-((2-((4-(3-((5-(dimethylamino)naphthalene)-1-sulfonamido)phenyl)thiazol-2-yl)amino)-2-oxoethyl)amino)ethane-1-sulfonic] | 70 ± 13.8 | 88 ± 3 (≈ 51.9 µg/mL) |  | 89.4 ± 6.5 |  |
| CCCCCc1ccc(S(=O)(=O)Nc2cccc(-c3csc(NC(=O)CNCCN(C)C)n3)c2)cc1 [PB693, 2-((2-(dimethylamino)ethyl)amino)-N-(4-(3-((4-pentylphenyl)sulfonamido)phenyl)thiazol-2-yl)acetamide] |  |  |  |  | Induction of CHOP in comparison to control condition, Kyse70 (CHOP in Kyse 70 cells): +; Induction of CHOP in comparison to control condition, SH10TC (CHOP in SH10TC cells): −; Induction of CHOP in comparison to control condition, A375 [2]: ++; Induction of CHOP in comparison to control condition, Kato III (CHOP in KATO III cells): −; IC50 (A375 melanoma cells [3]): 1 µM |
| CN1CCN(CCCCCC(=O)Nc2nc(-c3cccc(NS(=O)(=O)c4cccc5c(N(C)C)cccc45)c3)cs2)CC1 [PB697, N-(4-(3-((5-(dimethylamino)naphthalene)-1-sulfonamido)phenyl)thiazol-2-yl)-6-(4-methylpiperazin-1-yl)hexanamide] |  |  |  |  | IC50 (A375 melanoma cells [3]): 2 µM |
| CN(C)c1cccc2c(S(=O)(=O)Nc3cccc(-c4csc(NC(=O)CCCCCN5CCN(CCO)CC5)n4)c3)cccc12 [PB698, N-(4-(3-((5-(dimethylamino)naphthalene)-1-sulfonamido)phenyl)thiazol-2-yl)-6-(4-(2-hydroxyethyl)piperazin-1-yl)hexanamide] |  |  |  |  | IC50 (A375 melanoma cells [3]): 1.75 µM |
| CCCCCc1ccc(S(=O)(=O)Nc2cccc(-c3csc(N4CCN(C)CC4)n3)c2)cc1 [PB707, N-(3-(2-(4-methylpiperazin-1-yl)thiazol-4-yl)phenyl)-4-pentylbenzenesulfonamide] |  |  |  |  | IC50 (A375 melanoma cells [3]): 2.5 µM |
| CCCCCc1ccc(S(=O)(=O)Nc2cccc(-c3csc(N4CCN(CCO)CC4)n3)c2)cc1 [PB708, N-(3-(2-(4-(2-hydroxyethyl)piperazin-1-yl)thiazol-4-yl)phenyl)-4-pentylbenzenesulfonamide] |  |  |  |  | IC50 (A375 melanoma cells [3]): 2.5 µM |

— US20250353821A1, “BENZENE SULFONAMIDE THIAZOLE COMPOUNDS AND THEIR USE FOR THE TREATMENT OF CANCERS” (INSERM (INSTITUT NATIONAL DE LA SANTÉ ET DE LA RECHERCHE …, priority 2021, published 2025)
